Experimental data as given in article PMC8151276, “An Integrated Approach toward NanoBRET Tracers for Analysis of GPCR Ligand Engagement” (Molecules, 2021).

Legend:
Type in all cases: binding
CXCR1 = biological target: T1, CXCR1 (Homo sapiens, UniProt P25024); assay: NanoBRET screen HiBiT-CXCR1 in HEK293; settings: CXCR1
T1 construct: purchased Promega (in-house HiBiT-GPCR construct library, NanoBRET)
T1 sequence (P25024 1-350): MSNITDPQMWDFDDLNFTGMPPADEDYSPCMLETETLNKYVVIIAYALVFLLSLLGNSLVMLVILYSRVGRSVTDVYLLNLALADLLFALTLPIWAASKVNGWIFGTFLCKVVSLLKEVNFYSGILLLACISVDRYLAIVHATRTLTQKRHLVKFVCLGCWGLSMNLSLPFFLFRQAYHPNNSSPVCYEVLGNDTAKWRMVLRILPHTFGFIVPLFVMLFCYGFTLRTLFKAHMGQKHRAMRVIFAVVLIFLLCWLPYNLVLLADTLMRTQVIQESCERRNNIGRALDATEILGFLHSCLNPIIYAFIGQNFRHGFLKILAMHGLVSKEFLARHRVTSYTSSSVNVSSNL
Method: (§1) Each tracer candidate was screened across the entire library of HiBiT-GPCR constructs using NanoBRET as the detection modality. As depicted in Figure 4A, the specificity of interactions was evaluated through decrease in BRET due to competitive displacement of a bound tracer by excess parental compound. Each tracer was analyzed for binding to each HiBiT-GPCR fusion in the absence and in the presence of competing parental compound. Briefly, HEK293 cells were transfected with HiBiT-GPCR constructs diluted into promoterless DNA to reduce expression and maximize translocation to the cell surface. Each tracer candidate was then screened at concentrations of 1 μM and 0.1 μM across cells expressing these fusions. Cells were treated for 1.5 h with tracer either alone or in the presence of 20 μM competing parental compound (i.e., control). BRET was measured upon addition of purified LgBiT and subsequent complementation with HiBiT genetically fused to a GPCR. The specificity of interactions was assessed through a decrease in BRET signal due to competitive displacement of the bound tracer. To further gauge the robustness of these interactions, the fold response over the control (i.e., BRETtracer/BRETcontrol) was calculated. We chose a 1.5-fold response, which translates to ≥7-fold signal over noise as the minimal threshold required to score an interaction as positive. […]. Below we highlight the screening results obtained for our exemplary fluorescent tracers based on Clozapine, Amitriptyline and AZD1283.
(§2) HiBiT-GPCR DNA constructs were diluted in 10 mM Tris pH 8 to a final concentration of 0.01 μg/μL, arrayed in 96-well plates and stored at −20 °C. For transfection, HEK293 cells were suspended in Opti-MEM (without phenol red) supplemented with 2% fetal bovine serum (Seradigm) and 100 units/mL penicillin–streptomycin (Gibco) at a final concentration of 220,000 cells/mL and dispensed into white 96-well plates at 90 μL/well. Subsequent transfections and screens were carried using an Agilent Bravo Automated Liquid Handling Platform. First, the 96-well HiBiT DNA arrays were diluted 25-fold in Opti-MEM (without serum or phenol red) to a final concentration of 0.0004 μg/μL and 20 μL of the diluted DNAs were transferred into new 96-well plates. Next, promoterless carrier DNA (1 μg/μL) was diluted 25-fold (0.04 μg/μL) and then dispensed into the diluted arrays at 20 μL/well. Following brief mixing, Viafect transfection reagent (Promega) diluted 16-fold into Opti-MEM was dispensed into the plates at 40 μL/well. After mixing by pipetting, plates were incubated for 10 min on the pipetting station deck. The DNA-transfection reagent complexes were then added to plates containing cells. To facilitate the screen, 10 μL of DNA-transfection reagent complexes were added in duplicates to the top 4 and bottom 4 rows, resulting in two identical 48-well arrays per plate. Plates with transfected cells were incubated for 18–20 h at 37 °C/5% CO2. A screen of each tracer across the entire library using two different concentrations requires duplicate plates of transfected cells. Depending on the number of tracers being screened, transfections can be scaled up using the same ratios. The next day, for each tracer, four 20× screening solutions in tracer dilution buffer (Promega) were prepared: two duplicates at final concentration of 20 μM and two duplicates at a final concentration of 2 μM. A competing unmodified compound was added to one of each duplicate at a final concentration of 400 μM. The four resulting solutions were diluted 4-fold in Opti-MEM without serum or phenol red to generate 5× solutions (5 µM and 0.5 µM tracer +/− 100 μM competing compound). To screen the library, a BioTek MultiFlo FX liquid dispenser was used to dispense 22.5 µL of tracer solution to the top 4 rows and 22.5 µL tracer + competing compound solution to the 4 bottom rows. Plates were briefly mixed on an orbital shaker and incubated for 1.5 h at room temperature. […]

PTGER1 = biological target: T2, PTGER1 (Homo sapiens, UniProt P34995); assay: NanoBRET screen HiBiT-PTGER1 in HEK293; settings: PTGER1
T2 construct: purchased Promega (in-house HiBiT-GPCR construct library, NanoBRET)
T2 sequence (P34995 1-402): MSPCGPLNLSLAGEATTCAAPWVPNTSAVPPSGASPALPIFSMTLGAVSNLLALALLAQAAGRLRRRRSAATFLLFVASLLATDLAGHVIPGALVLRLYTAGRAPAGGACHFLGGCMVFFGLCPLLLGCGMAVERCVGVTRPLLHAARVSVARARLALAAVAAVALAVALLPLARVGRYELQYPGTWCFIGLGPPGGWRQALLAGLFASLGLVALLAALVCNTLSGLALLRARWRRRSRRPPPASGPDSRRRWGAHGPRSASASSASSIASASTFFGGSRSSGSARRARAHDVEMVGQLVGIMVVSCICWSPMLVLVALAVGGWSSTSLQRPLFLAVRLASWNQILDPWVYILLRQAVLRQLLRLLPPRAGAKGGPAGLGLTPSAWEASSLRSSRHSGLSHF
Method: as §1, §2

PDGFRB = biological target: T3, PDGFRB (Homo sapiens, UniProt P09619); assay: NanoBRET screen HiBiT-PDGFRB in HEK293; settings: PDGFRB
T3 construct: purchased Promega (in-house HiBiT-GPCR construct library, NanoBRET)
Method: as §1, §2

NTSR1 = biological target: T4, NTSR1 (Homo sapiens, UniProt P30989); assay: NanoBRET screen HiBiT-NTSR1 in HEK293; settings: NTSR1
T4 construct: purchased Promega (in-house HiBiT-GPCR construct library, NanoBRET)
Method: as §1, §2

F2RL3 = biological target: T5, F2RL3 (Homo sapiens, UniProt Q96RI0); assay: NanoBRET screen HiBiT-F2RL3 in HEK293; settings: F2RL3
T5 construct: purchased Promega (in-house HiBiT-GPCR construct library, NanoBRET)
T5 sequence (Q96RI0 18-385): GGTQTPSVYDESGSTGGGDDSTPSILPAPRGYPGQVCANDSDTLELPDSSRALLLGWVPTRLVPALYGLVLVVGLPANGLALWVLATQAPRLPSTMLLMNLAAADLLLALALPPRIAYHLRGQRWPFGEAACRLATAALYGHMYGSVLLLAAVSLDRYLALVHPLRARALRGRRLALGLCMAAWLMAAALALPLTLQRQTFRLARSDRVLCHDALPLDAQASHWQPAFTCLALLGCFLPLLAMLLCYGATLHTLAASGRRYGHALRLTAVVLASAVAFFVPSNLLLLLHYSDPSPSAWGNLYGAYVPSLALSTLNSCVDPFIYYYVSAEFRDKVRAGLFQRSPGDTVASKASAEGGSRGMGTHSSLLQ
Method: as §1, §2

PTAFR = biological target: T6, PTAFR (Homo sapiens, UniProt P25105); assay: NanoBRET screen HiBiT-PTAFR in HEK293; settings: PTAFR
T6 construct: purchased Promega (in-house HiBiT-GPCR construct library, NanoBRET)
Method: as §1, §2

T6 sequence (P25105 whole entry): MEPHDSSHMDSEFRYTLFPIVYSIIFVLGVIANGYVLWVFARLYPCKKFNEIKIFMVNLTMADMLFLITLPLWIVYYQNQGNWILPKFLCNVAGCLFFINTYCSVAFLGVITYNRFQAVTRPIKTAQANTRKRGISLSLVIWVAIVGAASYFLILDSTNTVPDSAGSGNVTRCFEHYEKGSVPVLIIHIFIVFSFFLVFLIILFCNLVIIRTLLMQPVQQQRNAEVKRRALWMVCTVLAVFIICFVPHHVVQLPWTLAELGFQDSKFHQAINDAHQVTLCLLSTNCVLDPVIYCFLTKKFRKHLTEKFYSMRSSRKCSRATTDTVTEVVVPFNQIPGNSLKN
T4 sequence (P30989 whole entry): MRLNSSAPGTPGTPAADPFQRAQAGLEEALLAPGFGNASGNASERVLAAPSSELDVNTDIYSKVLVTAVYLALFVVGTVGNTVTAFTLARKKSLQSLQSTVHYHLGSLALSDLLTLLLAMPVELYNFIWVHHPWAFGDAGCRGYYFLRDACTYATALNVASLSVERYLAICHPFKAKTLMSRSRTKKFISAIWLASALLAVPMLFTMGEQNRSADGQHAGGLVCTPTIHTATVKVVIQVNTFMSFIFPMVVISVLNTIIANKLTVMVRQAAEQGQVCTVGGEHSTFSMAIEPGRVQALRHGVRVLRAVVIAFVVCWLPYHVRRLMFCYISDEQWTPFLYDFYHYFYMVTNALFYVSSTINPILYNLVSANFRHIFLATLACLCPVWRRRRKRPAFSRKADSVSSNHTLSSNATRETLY
T3 sequence (P09619 33-1106): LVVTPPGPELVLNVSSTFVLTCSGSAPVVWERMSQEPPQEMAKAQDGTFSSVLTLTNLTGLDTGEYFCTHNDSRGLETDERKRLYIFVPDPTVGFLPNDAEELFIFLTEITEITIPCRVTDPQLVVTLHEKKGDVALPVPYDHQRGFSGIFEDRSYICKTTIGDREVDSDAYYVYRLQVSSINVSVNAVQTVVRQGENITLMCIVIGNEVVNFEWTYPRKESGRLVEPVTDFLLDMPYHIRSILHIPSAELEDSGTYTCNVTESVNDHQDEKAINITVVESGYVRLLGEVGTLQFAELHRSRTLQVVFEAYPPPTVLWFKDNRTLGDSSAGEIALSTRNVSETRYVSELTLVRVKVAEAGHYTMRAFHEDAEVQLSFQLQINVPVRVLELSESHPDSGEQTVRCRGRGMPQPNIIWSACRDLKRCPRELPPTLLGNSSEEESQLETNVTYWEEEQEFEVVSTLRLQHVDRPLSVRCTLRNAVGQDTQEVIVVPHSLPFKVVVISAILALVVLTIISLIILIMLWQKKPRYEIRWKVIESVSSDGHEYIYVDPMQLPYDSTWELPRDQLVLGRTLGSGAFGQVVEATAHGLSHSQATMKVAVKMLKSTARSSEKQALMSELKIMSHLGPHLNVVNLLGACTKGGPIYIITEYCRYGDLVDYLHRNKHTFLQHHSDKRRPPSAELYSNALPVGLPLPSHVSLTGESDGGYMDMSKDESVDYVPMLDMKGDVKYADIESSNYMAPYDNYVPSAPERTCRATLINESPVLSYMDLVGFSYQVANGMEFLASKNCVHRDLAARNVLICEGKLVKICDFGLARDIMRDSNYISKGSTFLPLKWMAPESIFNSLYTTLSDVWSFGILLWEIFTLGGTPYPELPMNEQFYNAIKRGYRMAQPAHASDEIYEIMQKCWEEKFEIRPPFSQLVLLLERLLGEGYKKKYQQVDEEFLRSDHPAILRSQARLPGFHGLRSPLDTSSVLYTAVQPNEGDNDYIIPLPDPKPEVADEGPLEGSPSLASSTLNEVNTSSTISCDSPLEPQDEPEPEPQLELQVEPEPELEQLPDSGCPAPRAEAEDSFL

Cc1cc2c(s1)Nc1ccccc1N=C2N1CCN(CCCNC(=O)CCOCCOCCOCCOCCNC(=O)CCc2ccc3n2[B-](F)(F)[N+]2=C(c4ccc[nH]4)C=CC2=C3)CC1 [Olanzapine-a-2-NB590]
NanoBRET Fold Response (CXCR1; tracer 0.1μM): 1.00
NanoBRET Fold Response (CXCR1; tracer 1μM): 0.99
NanoBRET Fold Response (PTGER1; tracer 0.1μM): 1.03
NanoBRET Fold Response (PTGER1; tracer 1μM): 1.04
NanoBRET Fold Response (PDGFRB; tracer 0.1μM): 0.98
NanoBRET Fold Response (PDGFRB; tracer 1μM): 1.05
NanoBRET Fold Response (NTSR1; tracer 0.1μM): 1.01
NanoBRET Fold Response (NTSR1; tracer 1μM): 1.02
NanoBRET Fold Response (F2RL3; tracer 0.1μM): 1.04
NanoBRET Fold Response (F2RL3; tracer 1μM): 0.98
NanoBRET Fold Response (PTAFR; tracer 0.1μM): 1.00
NanoBRET Fold Response (PTAFR; tracer 1μM): 0.99

O=C(CCc1ccc2n1[B-](F)(F)[N+]1=C(c3ccc[nH]3)C=CC1=C2)NCc1ccc(C(=O)NCCOCCOCCNCC(O)COc2cccc3ccccc23)cc1 (stereo not drawn) [Propranolol-3-NB590]
NanoBRET Fold Response (CXCR1; 0.1μM): 1.02
NanoBRET Fold Response (CXCR1; 1μM): 1.00
NanoBRET Fold Response (PTGER1; 0.1μM): 1.07
NanoBRET Fold Response (PTGER1; 1μM): 1.06
NanoBRET Fold Response (PDGFRB; 0.1μM): 1.05
NanoBRET Fold Response (PDGFRB; 1μM): 0.98
NanoBRET Fold Response (NTSR1; 0.1μM): 1.06
NanoBRET Fold Response (NTSR1; 1μM): 1.01
NanoBRET Fold Response (F2RL3; 0.1μM): 1.07
NanoBRET Fold Response (F2RL3; 1μM): 1.00
NanoBRET Fold Response (PTAFR; 0.1μM): 1.02
NanoBRET Fold Response (PTAFR; 1μM): 1.04

O=C(CCc1ccc2n1[B-](F)(F)[N+]1=C(c3ccc[nH]3)C=CC1=C2)NCCOCCOCCNC(=O)OCCOCCN1CCN(C2=Nc3ccccc3Sc3ccccc32)CC1 [Quetiapine-a-2-NB590]
NanoBRET Fold Response (CXCR1; tracer 0.1μM): 0.98
NanoBRET Fold Response (CXCR1; tracer 1μM): 0.95
NanoBRET Fold Response (PTGER1; tracer 0.1μM): 1.07
NanoBRET Fold Response (PTGER1; tracer 1μM): 1.05
NanoBRET Fold Response (PDGFRB; tracer 0.1μM): 1.13
NanoBRET Fold Response (PDGFRB; tracer 1μM): 1.03
NanoBRET Fold Response (NTSR1; tracer 0.1μM): 1.03
NanoBRET Fold Response (NTSR1; tracer 1μM): 0.89
NanoBRET Fold Response (F2RL3; tracer 0.1μM): 1.09
NanoBRET Fold Response (F2RL3; tracer 1μM): 0.84
NanoBRET Fold Response (PTAFR; tracer 0.1μM): 1.05
NanoBRET Fold Response (PTAFR; tracer 1μM): 1.13

Cc1nc2n(c(=O)c1CCN1CCC(c3noc4cc(F)ccc34)CC1)CCCC2OC(=O)NCCOCCOCCOCCOCCNC(=O)CCc1ccc2n1[B-](F)(F)[N+]1=C(c3ccc[nH]3)C=CC1=C2 (stereo not drawn) [Risperidone-2-NB590]
NanoBRET Fold Response (CXCR1; tracer 0.1μM): 1.01
NanoBRET Fold Response (CXCR1; tracer 1μM): 0.91
NanoBRET Fold Response (PTGER1; tracer 0.1μM): 1.04
NanoBRET Fold Response (PTGER1; tracer 1μM): 1.07
NanoBRET Fold Response (PDGFRB; tracer 0.1μM): 1.09
NanoBRET Fold Response (PDGFRB; tracer 1μM): 0.90
NanoBRET Fold Response (NTSR1; tracer 0.1μM): 1.00
NanoBRET Fold Response (NTSR1; tracer 1μM): 0.98
NanoBRET Fold Response (F2RL3; tracer 0.1μM): 0.98
NanoBRET Fold Response (F2RL3; tracer 1μM): 0.97
NanoBRET Fold Response (PTAFR; tracer 0.1μM): 1.00
NanoBRET Fold Response (PTAFR; tracer 1μM): 1.10

CC(C)N(CC[C@H](c1ccccc1)c1cc(CCNC(=O)CCOCCOCCOCCOCCNC(=O)CCc2ccc3n2[B-](F)(F)[N+]2=C(c4ccc[nH]4)C=CC2=C3)ccc1O)C(C)C [Tolterodine-2-NB590]
NanoBRET Fold Response (CXCR1; tracer 0.1μM): 1.27
NanoBRET Fold Response (CXCR1; tracer 1μM): 1.06
NanoBRET Fold Response (PTGER1; tracer 0.1μM): 1.00
NanoBRET Fold Response (PTGER1; tracer 1μM): 1.23
NanoBRET Fold Response (PDGFRB; tracer 0.1μM): 1.22
NanoBRET Fold Response (PDGFRB; tracer 1μM): 0.94
NanoBRET Fold Response (NTSR1; tracer 0.1μM): 1.09
NanoBRET Fold Response (NTSR1; tracer 1μM): 0.90
NanoBRET Fold Response (F2RL3; tracer 0.1μM): 1.08
NanoBRET Fold Response (F2RL3; tracer 1μM): 0.97
NanoBRET Fold Response (PTAFR; tracer 0.1μM): 1.17
NanoBRET Fold Response (PTAFR; tracer 1μM): 0.73

CC(C)N(CC[C@H](c1ccccc1)c1cc(CCNC(=O)c2ccc(CNC(=O)CCc3ccc4n3[B-](F)(F)[N+]3=C(c5ccc[nH]5)C=CC3=C4)cc2)ccc1O)C(C)C [Tolterodine-BZ-NB590]
NanoBRET Fold Response (CXCR1; tracer 0.1μM): 0.98
NanoBRET Fold Response (CXCR1; tracer 1μM): 1.11
NanoBRET Fold Response (PTGER1; tracer 0.1μM): 1.03
NanoBRET Fold Response (PTGER1; tracer 1μM): 1.03
NanoBRET Fold Response (PDGFRB; tracer 0.1μM): 1.14
NanoBRET Fold Response (PDGFRB; tracer 1μM): 1.21
NanoBRET Fold Response (NTSR1; tracer 0.1μM): 1.02
NanoBRET Fold Response (NTSR1; tracer 1μM): 1.03
NanoBRET Fold Response (F2RL3; tracer 0.1μM): 1.03
NanoBRET Fold Response (F2RL3; tracer 1μM): 1.06
NanoBRET Fold Response (PTAFR; tracer 0.1μM): 0.93
NanoBRET Fold Response (PTAFR; tracer 1μM): 0.85

CCCn1c(=O)c2[nH]c(-c3ccc(OCC(=O)NCCNC(=O)CCOCCNC(=O)c4ccc(CNC(=O)CCc5ccc6n5[B-](F)(F)[N+]5=C(c7ccc[nH]7)C=CC5=C6)cc4)cc3)nc2n(CCC)c1=O [XAC-3-NB590]
NanoBRET Fold Response (CXCR1; tracer 0.1μM): 1.05
NanoBRET Fold Response (CXCR1; tracer 1μM): 0.91
NanoBRET Fold Response (PTGER1; tracer 0.1μM): 1.06
NanoBRET Fold Response (PTGER1; tracer 1μM): 1.16
NanoBRET Fold Response (PDGFRB; tracer 0.1μM): 0.76
NanoBRET Fold Response (PDGFRB; tracer 1μM): 0.79
NanoBRET Fold Response (NTSR1; tracer 0.1μM): 0.98
NanoBRET Fold Response (NTSR1; tracer 1μM): 1.02
NanoBRET Fold Response (F2RL3; tracer 0.1μM): 0.99
NanoBRET Fold Response (F2RL3; tracer 1μM): 1.05
NanoBRET Fold Response (PTAFR; tracer 0.1μM): 0.90
NanoBRET Fold Response (PTAFR; tracer 1μM): 1.15
